The structures appear in SMILES notation. pIC50: −log10 of the molar value. Active and inactive are the calls of the source. No cut-off for these calls is given here.

The subject of assay [1] is MCF7. In words: Antiproliferative activity against human MCF7 cells assessed as reduction in cell viability after 48 hrs by MTT assay. The assay is classed as functional, cell-based. To be noted: MCF7, 48 h. In general terms: Tetrazolium assays rely on reduction of a dye to a coloured formazan, in cell work by metabolically active cells.
Assay [2] in a line: Resistance index, ratio of IC50 for antiproliferative activity against human MCF7/ADR cells to IC50 for antiproliferative activity against human MCF7 cells. It counts as functional.
Assay [3] deals with MDA-MB-231. In words: Antiproliferative activity against human MDA-MB-231 cells assessed as reduction in cell viability after 48 hrs by MTT assay. Conditions: MDA-MB-231, 48 h.
Assay [4] relates to MCF7. The assay is described as follows: Antiproliferative activity against human MCF7/ADR cells assessed as reduction in cell viability after 48 hrs by MTT assay. It counts as functional, cell-based. Conditions: MCF7, 48 h.
Assay [5] concerns the target T1, Estrogen receptor (Homo sapiens) (UniProt P03372).
T1 sequence (whole entry): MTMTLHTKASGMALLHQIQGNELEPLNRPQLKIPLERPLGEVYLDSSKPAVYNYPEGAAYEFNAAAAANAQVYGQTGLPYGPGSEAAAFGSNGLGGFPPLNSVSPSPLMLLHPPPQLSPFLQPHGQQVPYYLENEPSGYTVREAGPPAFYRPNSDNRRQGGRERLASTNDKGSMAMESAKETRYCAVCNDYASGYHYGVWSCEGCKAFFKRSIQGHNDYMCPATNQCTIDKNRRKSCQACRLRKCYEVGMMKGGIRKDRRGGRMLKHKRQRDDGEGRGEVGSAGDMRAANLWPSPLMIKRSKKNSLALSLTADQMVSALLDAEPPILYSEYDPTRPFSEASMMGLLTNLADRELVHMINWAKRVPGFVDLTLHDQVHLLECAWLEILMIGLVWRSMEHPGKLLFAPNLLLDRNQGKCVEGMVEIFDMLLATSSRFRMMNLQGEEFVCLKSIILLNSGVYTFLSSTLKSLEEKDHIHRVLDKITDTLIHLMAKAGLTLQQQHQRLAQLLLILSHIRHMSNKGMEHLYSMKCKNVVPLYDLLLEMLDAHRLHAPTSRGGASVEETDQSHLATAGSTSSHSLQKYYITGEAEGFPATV
The assay is described as follows: Induction of ERalpha degradation in human MCF7 cells assessed as decrease in ERalpha protein expression at 1 uM incubated for 24 hrs by Western blot analysis. The assay is classed as cell-based.

One may read the pIC50 as the negative decadic logarithm of the IC50, by convention in mol/L. Consider `CCCCOC(=O)/C=C/[C@H](C)[C@H]1CC[C@]2(C)C[C@@H]3C(C)=CC(=O)[C@H]3/C(C=O)=C\C[C@@H]12`, for which the pIC50 in assay [1] was 5.65; in assay [3], 5.83; in assay [4], 5.77. The “Ratio IC50” value in assay [2] came to 0.75.

Take `CC1=CC(=O)[C@H]2/C(C=O)=C\C[C@H]3[C@@H]([C@@H](C)/C=C\C=C/C(=O)OC45CC6CC(CC(C6)C4)C5)CC[C@]3(C)C[C@H]12`: the negative logarithm of the IC50 (pIC50) in assay [1] is 5.97; in assay [3], 5.97; in assay [4] it was 5.98. Besides, in assay [5], the result was Active. The “Ratio IC50” value in assay [2] turned out to be 0.96.

As for `CC1=CC(=O)[C@H]2/C(C=O)=C\C[C@H]3[C@@H]([C@@H](C)/C=C/C(=O)OCCOCCOC(=O)CC45CC6CC(CC(C6)C4)C5)CC[C@]3(C)C[C@H]12`, the values for the pIC50 in assay [1], in assay [3] and in assay [4] were 5.98, 6.11 and 5.95, respectively. Moreover, the “Ratio IC50” value in assay [2] worked out at 1.07.

As for `CC1=CC(=O)[C@H]2/C(C=O)=C\C[C@H]3[C@@H]([C@@H](C)/C=C/C(=O)OCCCCCCCCOC(=O)CC45CC6CC(CC(C6)C4)C5)CC[C@]3(C)C[C@H]12`, the pIC50 in assay [1] is 5.54; in assay [3], 6.12; in assay [4] it was 5.72. The “Ratio IC50” value in assay [2] is recorded as 0.67.

On to `COCCOCCOCCOC(=O)/C=C/[C@H](C)[C@H]1CC[C@]2(C)C[C@@H]3C(C)=CC(=O)[C@H]3/C(C=O)=C\C[C@@H]12`, for which the negative logarithm of the IC50 (pIC50) is 5.42 in assay [1], 5.50 in assay [3] and 5.65 in assay [4]. Further, the “Ratio IC50” value in assay [2] was 0.6.

For `CCCCCCOC(=O)/C=C/[C@H](C)[C@H]1CC[C@]2(C)C[C@@H]3C(C)=CC(=O)[C@H]3/C(C=O)=C\C[C@@H]12`, the pIC50 is 5.74 in assay [1], 6.07 in assay [3] and 5.79 in assay [4]. In addition, the “Ratio IC50” value in assay [2] was 0.89.

For the compound `CC1=CC(=O)[C@H]2/C(C=O)=C\C[C@H]3[C@@H]([C@@H](C)/C=C\C=C/C(=O)OCCCOC(=O)CC45CC6CC(CC(C6)C4)C5)CC[C@]3(C)C[C@H]12`, the pIC50 in assay [1] is 5.84; in assay [3], 6.36; in assay [4], 6.02. Further, in assay [2], the “Ratio IC50” value amounted to 0.66.

Regarding `CC1=CC(=O)[C@H]2/C(C=O)=C\C[C@H]3[C@@H]([C@@H](C)/C=C/C(=O)OCCCOC(=O)CC45CC6CC(CC(C6)C4)C5)CC[C@]3(C)C[C@H]12`, the results for the pIC50 in assay [1], in assay [3] and in assay [4] were 5.74, 6.54 and 6.15, respectively. For the same compound, the “Ratio IC50” value in assay [2] stood at 0.38.

For the compound `CCCCCCCCCCOC(=O)/C=C\C=C/[C@H](C)[C@H]1CC[C@]2(C)C[C@@H]3C(C)=CC(=O)[C@H]3/C(C=O)=C\C[C@@H]12`, the results for the pIC50 in assay [1], in assay [3] and in assay [4] were 5.73, 6.04 and 5.90, respectively. The “Ratio IC50” value in assay [2] turned out to be 0.68.

Consider `CCCCCCCCCOC(=O)/C=C/[C@H](C)[C@H]1CC[C@]2(C)C[C@@H]3C(C)=CC(=O)[C@H]3/C(C=O)=C\C[C@@H]12`, for which the negative-log IC50 (pIC50) was 5.74 in assay [1], 6.24 in assay [3] and 6.14 in assay [4]. In addition, the “Ratio IC50” value in assay [2] is listed as 0.4.

With `CC1=CC(=O)[C@H]2/C(C=O)=C\C[C@H]3[C@@H]([C@@H](C)/C=C/C(=O)OCCOCCOCCOCCOC(=O)CC45CC6CC(CC(C6)C4)C5)CC[C@]3(C)C[C@H]12`, the negative-log IC50 (pIC50) was 6.02 in assay [1], 6.03 in assay [3] and 6.07 in assay [4]. In assay [5], the result was Active. Moreover, in assay [2], the “Ratio IC50” value came to 0.9.

Take `COCCOCCOCCOC(=O)/C=C\C=C/[C@H](C)[C@H]1CC[C@]2(C)C[C@@H]3C(C)=CC(=O)[C@H]3/C(C=O)=C\C[C@@H]12`: the negative-log IC50 (pIC50) was 5.31 in assay [1], 5.63 in assay [3] and 5.49 in assay [4]. The “Ratio IC50” value in assay [2] is 0.67.

For `CC1=CC(=O)[C@H]2/C(C=O)=C\C[C@H]3[C@@H]([C@@H](C)/C=C/C(=O)OC45CC6CC(CC(C6)C4)C5)CC[C@]3(C)C[C@H]12`, the negative logarithm of the IC50 (pIC50) in assay [1] is 6.23; in assay [3], 6.02; in assay [4], 6.21. Further, the outcome in assay [5] was Active. In addition, in assay [2], the “Ratio IC50” value is 1.03.

`CCCCCCCCOC(=O)/C=C\C=C/[C@H](C)[C@H]1CC[C@]2(C)C[C@@H]3C(C)=CC(=O)[C@H]3/C(C=O)=C\C[C@@H]12`: the negative-log IC50 (pIC50) in assay [1] was 5.75; in assay [3] it was 6.28; in assay [4], 6.01. Besides, the “Ratio IC50” value in assay [2] is recorded as 0.55.

Regarding `CCCCCOC(=O)/C=C\C=C/[C@H](C)[C@H]1CC[C@]2(C)C[C@@H]3C(C)=CC(=O)[C@H]3/C(C=O)=C\C[C@@H]12`, the figures for the negative logarithm of the IC50 (pIC50) in assay [1], in assay [3] and in assay [4] were 5.74, 5.78 and 5.86, respectively. Besides, in assay [2], the “Ratio IC50” value turned out to be 0.74.

In the case of `CC1=CC(=O)[C@H]2/C(C=O)=C\C[C@H]3[C@@H]([C@@H](C)/C=C/C(=O)OCCOCCOCCOC(=O)CC45CC6CC(CC(C6)C4)C5)CC[C@]3(C)C[C@H]12`, the pIC50 in assay [1] is 5.98; in assay [3], 6.14; in assay [4], 5.94. In assay [5], the result was Active. The “Ratio IC50” value in assay [2] worked out at 1.11.

`CCCCCCCOC(=O)/C=C/[C@H](C)[C@H]1CC[C@]2(C)C[C@@H]3C(C)=CC(=O)[C@H]3/C(C=O)=C\C[C@@H]12`: the figures for the negative-log IC50 (pIC50) in assay [1], in assay [3] and in assay [4] were 5.66, 6.01 and 5.89, respectively. In assay [2], the “Ratio IC50” value amounted to 0.58.

In the case of `CCCCCOC(=O)/C=C/[C@H](C)[C@H]1CC[C@]2(C)C[C@@H]3C(C)=CC(=O)[C@H]3/C(C=O)=C\C[C@@H]12`, the pIC50 in assay [1] is 5.53; in assay [3], 5.62; in assay [4] it was 5.70. In addition, the “Ratio IC50” value in assay [2] is given as 0.67.

`CC1=CC(=O)[C@H]2/C(C=O)=C\C[C@H]3[C@@H]([C@@H](C)/C=C\C=C/C(=O)OCCOCCOOC(=O)CC45CC6CC(CC(C6)C4)C5)CC[C@]3(C)C[C@H]12`: the pIC50 in assay [1], in assay [3] and in assay [4] was below 5.00 in each case.

`CC1=CC(=O)[C@H]2/C(C=O)=C\C[C@H]3[C@@H]([C@@H](C)/C=C\C=C/C(=O)OCCCCCCCCOC(=O)CC45CC6CC(CC(C6)C4)C5)CC[C@]3(C)C[C@H]12`: the negative logarithm of the IC50 (pIC50) was 5.75 in assay [1], 6.16 in assay [3] and 5.83 in assay [4]. The “Ratio IC50” value in assay [2] amounted to 0.85.

As for `CCCCOC(=O)/C=C\C=C/[C@H](C)[C@H]1CC[C@]2(C)C[C@@H]3C(C)=CC(=O)[C@H]3/C(C=O)=C\C[C@@H]12`, the pIC50 in assay [1] is 5.84; in assay [3], 5.86; in assay [4], 5.73. For the same compound, in assay [2], the “Ratio IC50” value is reported as 1.28.

For the origin of these results see ChEMBL document CHEMBL5042519, “Design and synthesis of marine sesterterpene analogues as novel estrogen receptor α degraders for breast cancer treatment” (Eur J Med Chem, 2022).
